We go through 13 compounds from patent US11752132B2, “Materials and methods for improving gastrointestinal function” (University of Florida Research Foundation, Incorporated, priority 2010, dated 2023).

One series deals with small intestine mucosa. In words: Ussing chamber isotope flux studies, unidirectional and net flux of Na^+ and Cl^−. Also noted: key to Na Flux Jms / Na Flux Jsm / Na Flux Jnet: fluxes in μmol·h^−1·cm^−2. It counts as in vitro ADME, mice. As to the method: (§1) Following exsanguinations, jejunal segment was obtained by excluding the distal 12 cm of small intestine adjacent to the caecum. This segment was washed and flushed in ice-cold Ringer's solution before the mucosa was stripped from the underlying muscular layers (Zhang, Ameen et al. 2007). The mucosa was mounted between the 2 halves of an Ussing-type Lucite chamber with an area of 0.30 cm^2 (P2304, Physiologic instruments, San Diego, Calif. 92128 USA), and electrical parameters were recorded using a voltage/current clamp device (VCC MC-8, Physiologic instruments, San Diego, Calif. 92128 USA) (Vidyasagar et al. 2005; Vidyasagar et al. 2004; Zhang et al. 2007; Vidyasagar and Ramakrishna 2002).
Irradiation decreases Jms in a dose-dependent manner, and results in decreased net Na^+ absorption (JNetNa). Jsm far exceeds Jms at doses 7 and 9 Gy, causing net secretion. In addition, mice stool samples became loose or poorly formed at high dose irradiation, further evidencing decreased absorption and increased secretion of electrolytes. […] Decrease in Cl^− absorption was due to decrease in JmsCl^−.
In this Example, isotope (^22Na and ^36Cl) substitution studies are performed to determine the basal Na^+ and Cl^− movement. Briefly, ^22Na and ^36Cl are added either to the mucosal or to the serosal side. 0.5 ml samples are collected from the cold side at the end of every 30 minutes. Unidirectional fluxes are calculated using standard formula, and expressed as μmol·h^−1·cm^−2. Net flux (JNet) is calculated as the difference between Jms and Jsm fluxes across tissue pairs. Experiments are performed under short-circuit conditions.

Series [1] concerns jejunum (HCO3^− secretion). Briefly: pH stat measurement of HCO3^− secretion in stripped jejunal sheets. It counts as cell-based, mice. On the procedure:
A Bi-burette TIM 856 (Radiometer Analytical SAS, Villeurbanne, France) was used to measure HCO3^− secretion in stripped jejunal sheets (Vidyasagar et al. 2005; Vidyasagar et al. 2004; Zhang et al. 2007). Automated pumps maintained a constant pH for luminal solution through the addition of 0.01 μl of 0.025 M sulfuric acid (H2SO4). Standard-to-stat pH calibration was established by adding a known quantity of H2SO4 to a weak buffering solution, which contains an increasing concentration of HCO3^− to produce a linear titration curve.
Jejunal tissues were exposed to a buffered solution on the bath side (serosal side), while the luminal side was exposed to an HCO3^− free, low-buffered solution (0.1-mM HEPES (4-(2-hydroxyethyl)-1-piperazineethanesulfonic acid) buffer, pH 7.4). The HCO3^− secretion was equivalent to the amount of acid added to the luminal solution to maintain the pH at 7.4 (or the stat pH). All experiments were performed under voltage-clamp conditions. HCO3^−-free solution was gassed with 100% O2 and HCO3^−-containing solution was gassed with 95% O2 and 5% CO2. The HCO3^− secretion was expressed as μeq h^−1·cm^−2 (Vidyasagar et al. 2005; Vidyasagar et al. 2004; Zhang et al. 2007).
After the tissue was mounted, HCO3^− secretions were initially present in the absence of bath HCO3^−, but rapidly fell towards 0 within 20-30 minutes. If bath HCO3^− was not present during the titration, the HCO3^− secretion remained close to 0. […] When inhibitors were added to the mucosal solution, the pH was adjusted and allowed to equilibrate for 30 minutes, until a steady rate of HCO3^− secretion was observed. When the inhibitor was added to the bath side, the tissue was also equilibrated for 30 minutes to achieve a steady rate of HCO3^− secretion (see Table 3).
All experiments were performed during the initial 1-hour steady-state period. 1 tissue from each animal was used for each experiment; only 1 experimental condition was studied with each tissue sample. All experiments were repeated for at least 4 times.

For series [2], the system named is jejunal mucosa (net anion secretion). In words: Ussing chamber transepithelial short circuit current (Isc) with transport blockers/forskolin. In kind it is cell-based, mice. The settings on record: 0-Gy mice; 10 μM NPPB, 100 μM glibenclamide.
Excerpt: To study active HCO3^− secretion, 8-week-old, non-irradiated and irradiated, male BALB/c mice were obtained from the National Cancer Institute. Mice were randomly divided into groups, and abdomens were irradiated according to the gastrointestinal acute radiation syndrome (GI ARS) model with a Shepherd Mark-I, using a ^137Cs source delivering γ-irradiation at 1.84 Gy/min. Radiation was given as a single fraction. The GI ARS model will achieve maximum radiation damage to intestinal tissues, and mimics intestinal injury during radiation therapy of pelvic or abdominal tumors.
Changes in short circuit current (Isc), both as a function of time following radiation and with increasing doses of radiation, were examined to determine the earliest time and the minimum radiation dose required to produce significant changes in Isc. These studies were approved by the University of Rochester Animal Care and Use Committee.
as §1
To determine the contribution of NKCC1 to basal Isc, 100 μM bumetanide (Sigma-Aldrich Co., USA) was added to the bath solution.
To determine whether the bumetanide-insensitive portion of Isc occurs via an apical membrane anion channel, a non-specific anion channel blocker, 5-nitro-2-(3-phenylpropylamino)-benzoic acid (Sigma-Aldrich Co., USA) (10 μM NPPB), and a specific cystic fibrosis transmembrane conductance regulator (CFTR) blocker (100 μM glibenclamide, Sigma-Aldrich Co., USA) were applied.

For series [3], the system named is mice with injury to small intestine mucosa. Briefly: Oral administration of candidate nutrients in radiation, chemotherapy and Crohn's disease models. Conditions: for survival: oral feeding of an irradiated subject; for effect of oral administration on small intestine healing, paracellular conductance, electrolyte absorption, survival: radiation, chemotherapy and Crohn's disease models, each amino acid. As to the method: In a Crohn's disease model, mice are injected with anti-CD3 mAb (acute inflammatory model to mimic conditions of Crohn's disease).
The alterations of absorptive capacity of nutrients are determined using disease models with injury to small intestine mucosa, i.e., the radiation model, chemotherapy model, and the Crohn's disease model. Specifically, a candidate nutrient is orally administered to control mice and mice that received irradiation, chemotherapy, and anti-CD3 mAb, respectively. In addition, compositions containing various combinations of the candidate nutrients are orally administered.
To determine the absorptive capacity of each nutrient, bioelectric measurements are performed using an Ussing chamber. The measurements include: a) the sodium coupled-amino acid current (ISC) and changes in conductance, b) changes in saturation kinetics of each nutrient and changes in the ISC following the administration of each nutrient; and c) the electrolyte absorption studies using isotope flux studies in the presence and absence of the specific candidate nutrient.

In the case of `Cl` [Cl^−], the “Cl Flux Jms” value was 17.3 ± 1.1 in the series on small intestine mucosa (IR 0 Gy); 12.8 ± 0.9 in the series with small intestine mucosa (IR 1 Gy); 16.8 ± 0.7 with small intestine mucosa (IR 3 Gy); 14.2 ± 1.2 in the series with small intestine mucosa (IR 5 Gy); 7.1 ± 0.5 with small intestine mucosa (IR 7 Gy); −9.2 ± 0.8 in the series on small intestine mucosa (IR 9 Gy). Further, the “Cl Flux Jnet” value in the series on small intestine mucosa (IR 0 Gy) is given as 10.2 ± 0.8; with small intestine mucosa (IR 1 Gy), 5.2 ± 0.9; in the series on small intestine mucosa (IR 3 Gy) it was 7.5 ± 0.8; in the series with small intestine mucosa (IR 5 Gy), 3.9 ± 0.7; in the series with small intestine mucosa (IR 7 Gy), 0.3 ± 0.2; in the series with small intestine mucosa (IR 9 Gy), −9.3 ± 0.9. The “Cl Flux Jsm” value in the series on small intestine mucosa (IR 0 Gy) came to 7.1 ± 0.6; with small intestine mucosa (IR 1 Gy) it was 7.6 ± 1.3; in the series on small intestine mucosa (IR 3 Gy), 9.3 ± 0.8; in the series with small intestine mucosa (IR 5 Gy), 10.3 ± 0.9; in the series with small intestine mucosa (IR 7 Gy), 6.9 ± 0.3; in the series with small intestine mucosa (IR 9 Gy), 0.1 ± 0.1.

On to `CS(=O)(=O)c1cc(C(=O)NC(=N)N)ccc1N1CCCCC1.Cl` [HOE694, 3-methylsulphonyl-4-piperidinobenzoyl, guanidine hydrochloride], for which the “cAMP-stimulated HCO3^− secretion after HOE694” value in series [1] (1 mM HOE694 on bath side, 8.4±0.4 without) amounted to 7.2±0.9 μeq·h^−1·cm^−2.

As to `O=C(O)c1cc([N+](=O)[O-])ccc1NCCCc1ccccc1` [NPPB, 5-nitro-2-(3-phenylpropylamino)-benzoic acid], the “bumetanide-insensitive Isc after mucosal addition of blocker” value in series [2] was found to be 0.1±0.01 μeq·h^−1·cm^−2. Besides, the “forskolin-stimulated HCO3^− secretion after blocker” value in series [1] (0 Gy + forskolin, blocker on luminal side (100 μM glibenclamide; NPPB)) was 0.2±0.01 μeq·h^−1·cm^−2. Also, the “HCO3^− secretion” value in series [1] (3 Gy, blocker in lumen solution / mucosal addition (100 μM DIDS or glibenclamide; NPPB)) was 0.2±0.01 μeq·h^−1·cm^−2.

With `[Na+]` [Na^+], the “Na Flux Jms” value in the series with small intestine mucosa (IR 0 Gy) came out at 16.4 ± 0.9; with small intestine mucosa (IR 1 Gy), 15.6 ± 1; in the series on small intestine mucosa (IR 3 Gy) it was 6.8 ± 0.7; in the series with small intestine mucosa (IR 5 Gy), 5.2 ± 0.6; with small intestine mucosa (IR 7 Gy), 4.8 ± 0.4; with small intestine mucosa (IR 9 Gy) it was 4.3 ± 0.7. Besides, the “Na Flux Jnet” value is recorded as 9.8 ± 0.8 in the series on small intestine mucosa (IR 0 Gy); 8.6 ± 0.9 in the series with small intestine mucosa (IR 1 Gy); 2.6 ± 0.5 in the series with small intestine mucosa (IR 3 Gy); 0.4 ± 0.2 in the series with small intestine mucosa (IR 5 Gy); −0.6 ± 0.3 in the series on small intestine mucosa (IR 7 Gy); −0.4 ± 0.2 in the series on small intestine mucosa (IR 9 Gy). The “Na Flux Jsm” value was determined as 7.1 ± 0.8 in the series on small intestine mucosa (IR 0 Gy); 7.1 ± 1.1 in the series on small intestine mucosa (IR 1 Gy); 3.5 ± 0.3 in the series on small intestine mucosa (IR 3 Gy); 4.8 ± 0.4 in the series on small intestine mucosa (IR 5 Gy); 5.4 ± 0.4 in the series on small intestine mucosa (IR 7 Gy); 4.7 ± 0.6 in the series with small intestine mucosa (IR 9 Gy).

Turning to `NC(=O)C[C@H](N)C(=O)O` [asparagine], in series [3], the survival entry is “prolongs survival” and the “effect of oral administration on small intestine healing, paracellular conductance, electrolyte absorption, survival” value (from here on “effect of oral administration”) is listed as “improve small intestine healing, reduces paracellular conductance (thereby improving small intestine mucosal barrier mechanism), increases absorption of electrolytes, and/or improves survival in animals”.

For `N[C@@H](CC(=O)O)C(=O)O` [aspartic acid], in series [3], the survival result is given as “prolongs survival” and the “effect of oral administration” value is given as “improve small intestine healing, reduces paracellular conductance (thereby improving small intestine mucosal barrier mechanism), increases absorption of electrolytes, and/or improves survival in animals”.

In the case of `NCC(=O)O` [glycine], in series [3], the survival result is “prolongs survival” and the “effect of oral administration” value is “improve small intestine healing, reduces paracellular conductance (thereby improving small intestine mucosal barrier mechanism), increases absorption of electrolytes, and/or improves survival in animals”.

In the case of `CC[C@H](C)[C@H](N)C(=O)O` [isoleucine], in series [3], the survival entry is reported as “prolongs survival” and the “effect of oral administration” value is “improve small intestine healing, reduces paracellular conductance (thereby improving small intestine mucosal barrier mechanism), increases absorption of electrolytes, and/or improves survival in animals”.

As for `N[C@@H](CO)C(=O)O` [serine], in series [3], the survival entry is listed as “prolongs survival” and the “effect of oral administration” value is on record as “improve small intestine healing, reduces paracellular conductance (thereby improving small intestine mucosal barrier mechanism), increases absorption of electrolytes, and/or improves survival in animals”.

With `C[C@@H](O)[C@H](N)C(=O)O` [threonine], in series [3], the survival result is reported as “prolongs survival” and the “effect of oral administration” value is “improve small intestine healing, reduces paracellular conductance (thereby improving small intestine mucosal barrier mechanism), increases absorption of electrolytes, and/or improves survival in animals”.

For the compound `N[C@@H](Cc1c[nH]c2ccccc12)C(=O)O` [tryptophan], in series [3], the survival result is recorded as “prolongs survival” and the “effect of oral administration” value was “improve small intestine healing, reduces paracellular conductance (thereby improving small intestine mucosal barrier mechanism), increases absorption of electrolytes, and/or improves survival in animals”.

For the compound `N[C@@H](Cc1ccc(O)cc1)C(=O)O` [tyrosine], in series [3], the survival result was “prolongs survival” and the “effect of oral administration” value is on record as “improve small intestine healing, reduces paracellular conductance (thereby improving small intestine mucosal barrier mechanism), increases absorption of electrolytes, and/or improves survival in animals”.

On to `CC(C)[C@H](N)C(=O)O` [valine], for which, in series [3], the survival entry is reported as “prolongs survival” and the “effect of oral administration” value is reported as “improve small intestine healing, reduces paracellular conductance (thereby improving small intestine mucosal barrier mechanism), increases absorption of electrolytes, and/or improves survival in animals”.
